Our source for the photohypersensitivity of skin values is patent US20160082127A1, “PHOTOSENSITIZER PARTICLES FOR MEDICAL IMAGING AND/OR PHOTODYNAMIC THERAPY” (DCB-USA LLC, priority 2013, published 2016).

The data set deals with mice skin. Kind of data set: In vivo photohypersensitivity of mice skin. As to conditions: 0.3 mg/kg i.v. Also noted: species or system nude mice. Here is the method: It is well known that some PDT agents result in photohypersensitivity of the skin, which causes significant inconvenience in the daily life of the patient. Typical signs of photohypersensitivity include redness and swelling of the skin, visible angiopathy along with the formation of skin debris and even eschar in server cases. To investigate whether the present photosensitizer particles may elicit photohypersensitivity in the patient, 0.3 mg/kg native CPLA photosensitizer particles (LN1 particles from Example 2.1, above) and 0.3 mg/kg gas-loaded CPLA photosensitizer particles (LA1 particles from Example 2.1, above) were respectively injected to the tail of nude mice via intravenous injection 3 hours prior to light irradiation (15, 40 or 100 J/cm^2). Foscan® (0.3 mg/kg) was used as the positive control, while 1×PBS (100 μL) was used as negative control.

`Oc1cccc(-c2c3nc(c(-c4cccc(O)c4)c4ccc([nH]4)c(-c4cccc(O)c4)c4nc(c(-c5cccc(O)c5)c5ccc2[nH]5)CC4)C=C3)c1` [Foscan®]: the photohypersensitivity of skin result runs as follows: (15 or 40 J/cm^2) “little to mild photohypersensitivity”; (100 J/cm^2) “significant photohypersensitivity”.
